Experimental data published in patent US6964870B2, “Enhanced selection of genetically modified pine embryogenic tissue” (MeadWestvaco Corporation, priority 2000, dated 2005).

Key:
Type in all cases: cell-based
[1] = tested on: loblolly pine cell lines or hybrid cell lines; test: ABA in culture media during and after co-cultivation with Agrobacterium, all lines (Example 4)
Source text: (§1) Seven loblolly pine cell lines or hybrid cell lines from seven widely diverse genetic backgrounds were used in this experiment. To prepare for gene transfer using Agrobacterium, fabric supports were sterilized by autoclaving and placed in a sterile Buchner funnel, and one to five milliliters of embryogenic suspension was pipetted onto each support such that the embryogenic tissue was evenly distributed over its surface. Following this the liquid medium was suctioned from the tissues and each support bearing the embryogenic tissue was placed on gelled medium for inoculation by Agrobacterium. In this case the medium used was the same as the preparation medium described in Example 1 above, except that the medium, used here for preparation and co-cultivation of the cells, contained ABA at 0, 10, or 30 mg/L as an experimental condition. Genes were then introduced into the plant material by co-cultivation with Agrobacterium(Wenck et al. 1999). Specifically, gene constructs containing a reporter gene and a selectable marker were introduced into Agrobacterium tumefaciens strain EHA105 with the virulence-enhancing plasmid pTOK47 (Wenck et al. 1999), by techniques well known to those skilled in the art, and virulence was then induced with administration of acetosyringone by commonly used techniques, well known to those skilled in the art, whereupon the induced Agrobacterium was dripped over the plant material and these were co-cultivated in the dark at 23°±2° C. for approximately 24-72 hours. Those skilled in the art recognize that many different gene constructs, plasmids, strains, media, and co-cultivation times and protocols would be suitable for use in the present method.
(§2) Supports bearing approximately 0.1 g of embryogenic tissue were divided onto recovery media (having the same formulation as the maintenance medium except for the addition of 400 mg/L TIMENTIN® antibiotic) either containing or lacking ABA. […] Concentrations of ABA used in all these media were 0, 10, and 30 mg/l.
Cells were maintained on the selection media, with transfer of the polyester support membranes to fresh selection media of the same composition, every two weeks for a total of eight weeks of selection. Cells from actively growing sublines from selection were examined using stereomicroscopes for the expression of the visual marker gene uidA at the conclusion of the selection period. All of the sublines capable of active growth on selection medium were seen to express levels of the visual marker gene product that enabled them to be readily distinguished from non-selected cells. This continuing expression of the transgenes after at least twelve weeks following bombardment confirmed the integration of the transgenes in these sublines. […]

[2] = tested on: P. taeda embryogenic cell line P3; test: Agrobacterium transformation, transformants per selection plate with ABA in preparation/recovery/selection media
Source text: as §1
(§3) Following co-cultivation, cells were re-suspended into fresh DCR4 liquid wash medium (Table 2) containing eradicants such as 200-400 mg/L TIMENTIN® antibiotic. The DCR4 liquid wash medium was contained in sterile “baby food” jars with MAGENTA® aerated lids, conventional beakers, or multi-well plates. Resuspension was initiated by grasping the membrane support bearing the infected cells, using forceps, and rolling or folding it so that it could be taken up and placed into the liquid in the wash container. The liquid was then agitated to get the cells into suspension, and the membrane support was scraped with sterile forceps if cells appeared to be adhering to it. Once the cells were in suspension, the membrane was removed with sterile forceps.
(§4) Following this wash step, the cells were plated onto fresh sterile support membranes of the same type as used in the previous step, again by placing the fresh sterile support membranes in a sterile Buchner funnel, pipetting the suspension of plant cells onto the membranes, and again suctioning the liquid medium from the tissues using a mild vacuum. The cells were again resuspended in and cultured in fresh sterile wash medium by agitating the membrane bearing the cells in the liquid, again removing cells that appeared to be adhering by gently scraping with forceps. The cells were then re-plated on fresh membrane supports over Buchner funnels. This procedure was repeated twice before the cells were again plated on supports as described above.
as §2
(§5) Cells were maintained on the selection media, with transfer of the polyester support membranes to fresh selection media of the same composition, every two weeks for a total of eight weeks of selection. Cells from actively growing sublines from selection were examined using stereomicroscopes for the expression of the visual marker gene uidA at the conclusion of the selection period. […]

[3] = tested on: P. taeda embryogenic cell line P4; test: as above
Source text: as §1, §3, §4, §2, §5

[4] = tested on: P. rigida Hybrid embryogenic cell line H1; test: as above
Source text: as §1, §3, §4, §2, §5

[5] = tested on: P. taeda embryogenic cell line P5; test: as above
Source text: as §1, §3, §4, §2, §5

[6] = tested on: P. taeda embryogenic cell line P2; test: as above
Source text: as §1, §3, §4, §2, §5

[7] = tested on: P. taeda embryogenic cell line P1; test: as above
Source text: as §1, §3, §4, §2, §5

[8] = tested on: P. taeda embryogenic cell line P6; test: as above
Source text: as §1, §3, §4, §2, §5

[9] = ABA mg/l in preparation/recovery/selection medium 0/0/10
[10] = ABA mg/l in preparation/recovery/selection medium 0/0/30
[11] = ABA mg/l in preparation/recovery/selection medium 0/10/10
[12] = ABA mg/l in preparation/recovery/selection medium 0/10/30
[13] = ABA mg/l in preparation/recovery/selection medium 0/30/30
[14] = ABA mg/l in preparation/recovery/selection medium 10/10/10
[15] = ABA mg/l in preparation/recovery/selection medium 30/10/10
[16] = ABA mg/l in preparation/recovery/selection medium 30/30/30

Compound: CC1=CC(=O)CC(C)(C)[C@@]1(O)/C=C/C(C)=C\C(=O)O [ABA, abscisic acid]
- necrotic foci in somatic embryogenic masses ([1]; 10 or 30 mg/L ABA during and after co-cultivation with Agrobacterium vs media without ABA, all lines): fewer necrotic foci
- effect on observation of transformants ([1]; 10 or 30 mg/l ABA in the preparation medium): neutral or beneficial
- doubling of somatic embryogenic masses ([1]; ABA in recovery medium after co-cultivation with Agrobacterium vs no ABA, certain P. taeda lines and hybrids): able to double more rapidly
- effect on observation of transformants ([1]; ABA in the recovery medium): similarly neutral or beneficial
- Average (n = 12) Number of Transformants observed per Selection Plate [2, 9]: 21.7 +/− 3.6
- Average (n = 12) Number of Transformants observed per Selection Plate [2, 10]: 22.3 +/− 5.4
- Average (n = 12) Number of Transformants observed per Selection Plate [2, 11]: 23.3 +/− 2.8
- Average (n = 12) Number of Transformants observed per Selection Plate [2, 12]: 26.0 +/− 6.9
- Average (n = 12) Number of Transformants observed per Selection Plate [2, 13]: 18.6 +/− 5.1
- Average (n = 12) Number of Transformants observed per Selection Plate [2, 14]: 22.6 +/− 4.3
- Average (n = 12) Number of Transformants observed per Selection Plate [2, 15]: 21.6 +/− 3.6
- Average (n = 12) Number of Transformants observed per Selection Plate [2, 16]: 21.1 +/− 2.3
- Average (n = 12) Number of Transformants observed per Selection Plate [3, 9]: 27.5 +/− 11.4
- Average (n = 12) Number of Transformants observed per Selection Plate [3, 10]: 34.9 +/− 9.7
- Average (n = 12) Number of Transformants observed per Selection Plate [3, 11]: 28.8 +/− 11.6
- Average (n = 12) Number of Transformants observed per Selection Plate [3, 12]: 30.9 +/− 9.3
- Average (n = 12) Number of Transformants observed per Selection Plate [3, 13]: 28.6 +/− 7.6
- Average (n = 12) Number of Transformants observed per Selection Plate [3, 14]: 27.8 +/− 9.0
- Average (n = 12) Number of Transformants observed per Selection Plate [3, 15]: 22.7 +/− 7.0
- Average (n = 12) Number of Transformants observed per Selection Plate [3, 16]: 27.3 +/− 7.4
- Average (n = 12) Number of Transformants observed per Selection Plate [4, 9]: 27.0 +/− 11.2
- Average (n = 12) Number of Transformants observed per Selection Plate [4, 10]: 21.1 +/− 6.5
- Average (n = 12) Number of Transformants observed per Selection Plate [4, 11]: 19.0 +/− 6.5
- Average (n = 12) Number of Transformants observed per Selection Plate [4, 12]: 21.6 +/− 8.6
- Average (n = 12) Number of Transformants observed per Selection Plate [4, 13]: 15.1 +/− 4.9
- Average (n = 12) Number of Transformants observed per Selection Plate [4, 14]: 21.9 +/− 8.4
- Average (n = 12) Number of Transformants observed per Selection Plate [4, 15]: 22.9 +/− 10.1
- Average (n = 12) Number of Transformants observed per Selection Plate [4, 16]: 21.8 +/− 9.9
- Average (n = 12) Number of Transformants observed per Selection Plate [5, 9]: 18.1 +/− 4.0
- Average (n = 12) Number of Transformants observed per Selection Plate [5, 10]: 5.5 +/− 3.1
- Average (n = 12) Number of Transformants observed per Selection Plate [5, 11]: 2.4 +/− 2.0
- Average (n = 12) Number of Transformants observed per Selection Plate [5, 12]: 7.2 +/− 2.1
- Average (n = 12) Number of Transformants observed per Selection Plate [5, 13]: 3.3 +/− 2.1
- Average (n = 12) Number of Transformants observed per Selection Plate [5, 14]: 10.3 +/− 2.4
- Average (n = 12) Number of Transformants observed per Selection Plate [5, 15]: 11.3 +/− 2.4
- Average (n = 12) Number of Transformants observed per Selection Plate [5, 16]: 14.3 +/− 3.5
- Average (n = 12) Number of Transformants observed per Selection Plate [6, 9]: 5.8 +/− 2.3
- Average (n = 12) Number of Transformants observed per Selection Plate [6, 10]: 8.8 +/− 4.8
- Average (n = 12) Number of Transformants observed per Selection Plate [6, 11]: 1.0 +/− 1.0
- Average (n = 12) Number of Transformants observed per Selection Plate [6, 12]: 0.3 +/− 0.5
- Average (n = 12) Number of Transformants observed per Selection Plate [6, 13]: 5.2 +/− 6.1
- Average (n = 12) Number of Transformants observed per Selection Plate [6, 14]: 10.0
- Average (n = 12) Number of Transformants observed per Selection Plate [6, 15]: 5.9 +/− 2.4
- Average (n = 12) Number of Transformants observed per Selection Plate [6, 16]: 5.3 +/− 2.5
- Average (n = 12) Number of Transformants observed per Selection Plate [7, 9]: 0.3 +/− 0.9
- Average (n = 12) Number of Transformants observed per Selection Plate [7, 10]: 0.0 +/− 0.0
- Average (n = 12) Number of Transformants observed per Selection Plate [7, 11]: 0.0 +/− 0.0
- Average (n = 12) Number of Transformants observed per Selection Plate [7, 12]: 0.1 +/− 0.3
- Average (n = 12) Number of Transformants observed per Selection Plate [7, 13]: 0.8 +/− 0.6
- Average (n = 12) Number of Transformants observed per Selection Plate [7, 14]: 1.3 +/− 0.9
- Average (n = 12) Number of Transformants observed per Selection Plate [7, 15]: 0.3 +/− 0.5
- Average (n = 12) Number of Transformants observed per Selection Plate [7, 16]: 0.4 +/− 0.8
- Average (n = 12) Number of Transformants observed per Selection Plate [8, 9]: 3.9 +/− 1.5
- Average (n = 12) Number of Transformants observed per Selection Plate [8, 10]: 3.3 +/− 2.8
- Average (n = 12) Number of Transformants observed per Selection Plate [8, 11]: 3.2 +/− 1.4
- Average (n = 12) Number of Transformants observed per Selection Plate [8, 12]: 3.2 +/− 1.5
- Average (n = 12) Number of Transformants observed per Selection Plate [8, 13]: 2.3 +/− 2.6
- Average (n = 12) Number of Transformants observed per Selection Plate [8, 14]: 4.5 +/− 1.3
- Average (n = 12) Number of Transformants observed per Selection Plate [8, 15]: 3.1 +/− 2.3
- Average (n = 12) Number of Transformants observed per Selection Plate [8, 16]: 2.3 +/− 1.1
